# What was measured:
# [1] = In vivo administration test 2: oral administration, plasma concentrations; details: male cynomolgus monkeys, single dose 100 mg/kg
# Description: Each enantiomer (S(+) form or R(−) form) of MA5 was dissolved in a mixed solution of physiological saline and 0.1 N sodium hydroxide (9:1), and filtered and sterilized by using a 0.22 μm filter to prepare a solution containing 2 mL/kg of each enantiomer of MA5. Next, the solution containing each enantiomer of MA5 was intravenously administered to each of three 4- to 5-year-old male cynomolgus monkeys at a single dose of 1 mg/kg. As a control, a solution containing no enantiomer of MA5 was also administered in the same manner. […] The analysis conditions for LC-MS/MS are as follows.
# As an ionization unit, an apparatus in which NANOSPACESI-2 (manufactured by OSAKA SODA CO., LTD.) as a high-performance liquid chromatograph was connected to a triple quadrupole mass spectrometer (TSQ Quantum Ultra, manufactured by Thermo Fisher Scientific Inc.) equipped with an ESI probe was used. The S(+) form of MA5 (S-(+)-MA5) and the R(−) form of MA5 (R-(−)-MA5), which are substances to be analyzed, were subjected to quantitative analysis by the internal standard method using their respective stable isotopes S-(+)-MA5-d6 and R-(−)-MA5-d6. […]
# The MS conditions were detected in negative ion mode, a spray voltage set to 2.5 kV, a vaporizer temperature set to 250° C., and an ion transfer tube temperature set to 250° C. […] Waveform analysis and quantitative calculation by the internal standard method were carried out by using Xcalibur (manufactured by Thermo Fisher Scientific Inc.).
# In “3. […] Specifically, according to the method described in “3-1 Method” above, a solution containing each enantiomer (S(+) form or R(−) form) of MA5 was orally administered to male cynomolgus monkeys at a single dose of 100 mg/kg, the concentration of each enantiomer of MA5 and the concentration of a reduced metabolite of each enantiomer of MA5 (the compound represented by formula (B) [that is, Red-MA5]) in plasma were measured.
# immt-1/mitofilin mutant = assay: Evaluation of mitochondrial function: mitochondrial swelling in body wall muscle cells; format: in vivo, C. elegans; details: immt-1/mitofilin mutants, 10 μM, raised 5 days from L4 larval stage, compared with control DMSO
# Description: It has been reported that in immt-1-deficient mutant C. elegans (hereinafter referred to as “immt-1/mitofilin mutant”), which is a C. elegans ortholog of the mitochondrial inner membrane protein (Mitofilin), mitochondria in muscle cells swell (see the literature “Journal of Cellular Physiology. 224 (2010) 748-756” and the literature “Molecular Biology of the Cell. 22 (2011) 831-841.”). Therefore, when three compounds (racemic form of MA5, S(+) form of MA5, or R(−) form of MA5) were administered to immt-1/mitofilin mutants, whether or not mitochondrial swelling was alleviated was analyzed.
# As a comparative control, ccIs4251 wild-type C. elegans (obtained from CGC [Caenorhabditis Genetics Center]) was raised on a culture plate and analyzed in the same manner.
# HBlEpC cell line = assay: Cytotoxicity evaluation 1: viable cell level by WST-8 assay; format: cell-based, human; details: 30 nM to 1 mM, cultured 48 hours
# Description: Hereinafter, the present invention will be described more specifically with reference to Examples, but the technical scope of the present invention is not limited to these Examples. The INS-1E cell line was cultured in an incubator (37° C., 21% O2, 5% CO2) in the presence of RPMI-1640 Medium (manufactured by GIBCO) containing 11.1 mM glucose, 10% FBS, 1 mM sodium pyruvate, 10 mM HEPES, 2 mM glutamine, 50 μM β-mercaptoethanol, penicillin at 100 U/mL, and streptomycin at 100 μg/mL (hereinafter simply referred to as “RPMI-1640 Medium”). […]
# An HBlEpC cell line (manufactured by Cell Application) was seeded in a 96-well plate at 2×10^3 cells per well, 0.1% DMSO, which is a solvent for the compounds, or various concentrations (30 NM, 100 nM, 300 nM, 1 μM, 3 μM, 10 μM, 30 μM, 100 μM, 300 μM, or 1 mM) of three compounds (racemic form of MA5, S(+) form of MA5, or R(−) form of MA5) were added to the HBlEpC culture medium, and the cells were cultured for 48 hours. […] The viable cell level (viable cell count level) after culture was measured by a WST-8 assay using Cell Count Reagent SF (manufactured by Nacalai Tesque, Inc.).
Structure (SMILES),concentration in plasma after oral administration [1],reduced metabolite (Red-MA5) in plasma [1],number of swelling mitochondria per body wall muscle cell (immt-1/mitofilin mutant),proportion of body wall muscle cells in which 5 or more swelling mitochondria per body wall muscle cell were observed (immt-1/mitofilin mutant),"viability of the cells (viable cell level, OD450) (HBlEpC cell line)"
"O=C(C[C@H](C(=O)O)c1c[nH]c2ccccc12)c1ccc(F)cc1F [S(+) form of MA5, 4-(2,4-difluorophenyl)-2-(1H-indol-3-yl)-4-oxo-butanoic acid]",higher than that of the R(−) form of MA5 in plasma,almost no reduced metabolite was detected,greatly decreased,greatly decreased,the viability of the cells was higher with the S(+) form of MA5 than with the R(−) form of MA5
"O=C(C[C@@H](C(=O)O)c1c[nH]c2ccccc12)c1ccc(F)cc1F [R(−) form of MA5, 4-(2,4-difluorophenyl)-2-(1H-indol-3-yl)-4-oxo-butanoic acid]",,detected,remained almost unchanged or only slightly decreased,remained almost unchanged or only slightly decreased,the viability of the cells was higher than when the HBlEpC cell line was cultured in the presence of the racemic form of MA5

# From patent publication US20240270692A1, “S(+) FORM OF 4-(2,4-DIFLUOROPHENYL)-2-(1H-INDOL-3-YL)-4-OXO-BUTANOIC ACID” (TOHOKU UNIVERSITY, priority 2021, published 2024)
